# Data reported in patent US20090181963A1, “3H-[1,2,3]TRIAZOLO[4,5-D]PYRIMIDINE COMPOUNDS, THEIR USE AS mTOR KINASE AND PI3 KINASE INHIBITORS, AND THEIR [sequence]” (Wyeth, priority 2008, published 2009).
# Assays:
# PI3 Kinase α = PI3 Kinase α (Homo sapiens, UniProt P42336); experiment: Fluorescence polarization assay for PI3K (PI3 Kinase α); assay type: biochemical; conditions: diC8-PI(4,5)P2 substrate, 25 μM ATP, one hour at 25° C.
# PI3 Kinase γ = PI3 Kinase γ (Homo sapiens, UniProt P48736); experiment: Fluorescence polarization assay for PI3K (PI3 Kinase γ); assay type: biochemical; conditions: diC8-PI(4,5)P2 substrate, 25 μM ATP, one hour at 25° C.
# Sequence of PI3 Kinase γ (P48736 whole entry): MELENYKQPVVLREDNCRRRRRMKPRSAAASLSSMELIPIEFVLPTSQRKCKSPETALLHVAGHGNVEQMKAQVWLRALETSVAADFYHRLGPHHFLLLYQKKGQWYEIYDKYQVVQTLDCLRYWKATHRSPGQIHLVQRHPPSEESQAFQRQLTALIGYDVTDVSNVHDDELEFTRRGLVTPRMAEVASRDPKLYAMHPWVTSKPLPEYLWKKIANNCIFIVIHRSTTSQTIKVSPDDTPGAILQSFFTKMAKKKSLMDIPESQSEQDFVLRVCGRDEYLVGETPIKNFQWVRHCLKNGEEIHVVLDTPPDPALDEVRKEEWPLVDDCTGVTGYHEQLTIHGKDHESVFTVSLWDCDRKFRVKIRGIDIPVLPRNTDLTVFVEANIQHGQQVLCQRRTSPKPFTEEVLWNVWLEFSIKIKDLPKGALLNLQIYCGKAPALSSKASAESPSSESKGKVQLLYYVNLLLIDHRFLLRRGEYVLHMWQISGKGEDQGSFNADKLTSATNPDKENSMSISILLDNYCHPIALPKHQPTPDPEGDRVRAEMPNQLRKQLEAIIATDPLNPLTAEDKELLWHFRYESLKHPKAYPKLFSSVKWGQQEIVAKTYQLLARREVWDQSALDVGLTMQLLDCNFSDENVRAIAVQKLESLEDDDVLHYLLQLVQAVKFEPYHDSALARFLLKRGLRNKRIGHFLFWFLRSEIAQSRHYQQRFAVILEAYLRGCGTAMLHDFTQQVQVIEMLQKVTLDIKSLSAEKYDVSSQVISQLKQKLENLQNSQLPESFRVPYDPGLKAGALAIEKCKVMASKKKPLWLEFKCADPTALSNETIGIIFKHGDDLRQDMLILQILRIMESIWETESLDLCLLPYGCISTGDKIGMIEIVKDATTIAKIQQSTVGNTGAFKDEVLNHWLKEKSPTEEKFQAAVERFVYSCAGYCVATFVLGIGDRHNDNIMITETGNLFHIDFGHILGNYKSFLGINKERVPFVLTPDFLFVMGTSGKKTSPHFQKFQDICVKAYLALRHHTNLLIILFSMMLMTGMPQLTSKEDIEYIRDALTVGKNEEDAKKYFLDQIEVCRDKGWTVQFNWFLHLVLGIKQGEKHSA
# Sequence of PI3 Kinase α (P42336 whole entry): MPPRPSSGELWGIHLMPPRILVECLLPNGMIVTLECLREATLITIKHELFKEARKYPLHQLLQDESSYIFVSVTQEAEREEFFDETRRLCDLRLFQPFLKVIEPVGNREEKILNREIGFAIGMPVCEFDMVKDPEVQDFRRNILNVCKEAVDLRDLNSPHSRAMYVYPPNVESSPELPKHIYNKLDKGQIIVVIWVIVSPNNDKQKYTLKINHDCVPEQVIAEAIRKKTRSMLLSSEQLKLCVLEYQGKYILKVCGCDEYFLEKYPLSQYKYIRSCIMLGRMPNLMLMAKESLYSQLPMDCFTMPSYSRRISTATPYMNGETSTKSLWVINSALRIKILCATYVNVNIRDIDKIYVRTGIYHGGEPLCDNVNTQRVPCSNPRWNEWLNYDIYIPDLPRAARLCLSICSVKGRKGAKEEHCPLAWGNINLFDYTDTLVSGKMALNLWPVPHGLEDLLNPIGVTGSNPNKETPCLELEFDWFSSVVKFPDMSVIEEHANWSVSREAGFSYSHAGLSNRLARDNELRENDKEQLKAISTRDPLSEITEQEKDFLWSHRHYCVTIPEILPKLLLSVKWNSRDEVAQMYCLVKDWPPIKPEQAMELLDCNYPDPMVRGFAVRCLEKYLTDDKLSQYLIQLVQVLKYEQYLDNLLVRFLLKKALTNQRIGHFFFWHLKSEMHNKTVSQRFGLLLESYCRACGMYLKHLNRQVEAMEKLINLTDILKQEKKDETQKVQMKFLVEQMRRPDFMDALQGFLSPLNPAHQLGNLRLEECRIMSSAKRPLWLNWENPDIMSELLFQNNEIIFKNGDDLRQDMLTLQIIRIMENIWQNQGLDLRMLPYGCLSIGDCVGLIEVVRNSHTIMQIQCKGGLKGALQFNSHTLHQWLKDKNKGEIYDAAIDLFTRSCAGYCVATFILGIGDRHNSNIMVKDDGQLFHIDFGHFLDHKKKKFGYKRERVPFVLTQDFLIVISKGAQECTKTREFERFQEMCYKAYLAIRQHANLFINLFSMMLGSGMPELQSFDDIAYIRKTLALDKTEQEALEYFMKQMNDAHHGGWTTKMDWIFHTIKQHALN
# Sequence of PI3 Kinase α (P27986 whole entry partner): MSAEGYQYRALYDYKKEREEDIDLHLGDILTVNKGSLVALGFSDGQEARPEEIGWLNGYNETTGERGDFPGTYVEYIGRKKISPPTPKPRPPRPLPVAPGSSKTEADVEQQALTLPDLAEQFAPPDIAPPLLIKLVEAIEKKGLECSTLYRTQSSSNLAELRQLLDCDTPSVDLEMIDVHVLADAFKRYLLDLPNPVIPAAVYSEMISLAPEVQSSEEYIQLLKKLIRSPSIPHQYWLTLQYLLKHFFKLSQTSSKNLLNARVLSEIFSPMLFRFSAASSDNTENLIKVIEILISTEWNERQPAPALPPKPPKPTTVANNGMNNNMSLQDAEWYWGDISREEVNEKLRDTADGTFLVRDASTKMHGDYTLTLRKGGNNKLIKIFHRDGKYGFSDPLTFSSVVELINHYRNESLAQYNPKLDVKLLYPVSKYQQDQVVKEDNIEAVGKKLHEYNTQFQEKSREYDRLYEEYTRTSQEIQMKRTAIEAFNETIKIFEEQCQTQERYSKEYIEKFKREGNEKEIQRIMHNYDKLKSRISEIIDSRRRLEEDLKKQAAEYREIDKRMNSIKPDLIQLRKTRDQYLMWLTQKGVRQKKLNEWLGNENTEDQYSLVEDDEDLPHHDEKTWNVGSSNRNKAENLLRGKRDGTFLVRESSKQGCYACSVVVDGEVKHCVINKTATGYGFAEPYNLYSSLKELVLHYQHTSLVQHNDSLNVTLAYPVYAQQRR
Molecule,IC50 (PI3 Kinase α) [nM],IC50 (PI3 Kinase γ) [nM]
"CN(C)CCCCn1nnc2c(N3CCOCC3)nc(-c3cccc(O)c3)nc21 [Example 202, 3-{3-[4-(dimethylamino)butyl]-7-morpholin-4-yl-3H-[1,2,3]triazolo[4,5-d]pyrimidin-5-yl}phenol]",224,780
"CC(=O)NCCn1nnc2c(N3CCOCC3)nc(-c3cccc(O)c3)nc21 [Example 7, N-{2-[5-(3-hydroxyphenyl)-7-morpholin-4-yl-3H-[1,2,3]triazolo[4,5-d]pyrimidin-3-yl]ethyl}acetamide]",171,406
"CC(C)(C)OC(=O)Cn1nnc2c(N3CCOCC3)nc(-c3ccc(NC(=O)Nc4ccncc4)cc3)nc21 [Example 234, tert-butyl (7-morpholin-4-yl-5-{4-[(pyridin-4-ylcarbamoyl)amino]phenyl}-3H-[1,2,3]triazolo[4,5-d]pyrimidin-3-yl)acetate]",74,173
"CN(C)CCNC(=O)c1ccc(Cn2nnc3c(N4CCOCC4)nc(-c4cccc(O)c4)nc32)cc1 [Example 214, N-[2-(dimethylamino)ethyl]-4-{[5-(3-hydroxyphenyl)-7-morpholin-4-yl-3H-[1,2,3]triazolo[4,5-d]pyrimidin-3-yl]methyl}benzamide]",386,1540
"CN(C)CCNC(=O)Nc1ccc(-c2nc(N3CCOCC3)c3nnn(C4CCN(Cc5ccc(F)cc5)CC4)c3n2)cc1 [Example 153, 1-(2-(dimethylamino)ethyl)-3-(4-(3-(1-(4-fluorobenzyl)piperidin-4-yl)-7-morpholino-3H-[1,2,3]triazolo[4,5-d]pyrimidin-5-yl)phenyl)urea]",146,176
"CN(C)CCCOc1ccc(CN2CCN(CCn3nnc4c(N5CCOCC5)nc(-c5cccc(O)c5)nc43)CC2)cc1 [Example 110, 3-{3-[2-(4-{4-[3-(dimethylamino)propoxy]benzyl}piperazin-1-yl)ethyl]-7-morpholin-4-yl-3H-[1,2,3]triazolo[4,5-d]pyrimidin-5-yl}phenol]",200,402
"Oc1cncc(-c2nc(N3CCOCC3)c3nnn(C4CCN(Cc5ccc[nH]5)CC4)c3n2)c1 [Example 29, 5-{7-morpholin-4-yl-3-[1-(1H-pyrrol-2-ylmethyl)piperidin-4-yl]-3H-[1,2,3]triazolo[4,5-d]pyrimidin-5-yl}pyridin-3-ol]",1140,3110
"OCc1cncc(-c2nc(N3CCOCC3)c3nnn(C4CCN(Cc5ccccc5)CC4)c3n2)c1 [Example 173, {5-[3-(1-benzylpiperidin-4-yl)-7-morpholin-4-yl-3H-[1,2,3]triazolo[4,5-d]pyrimidin-5-yl]pyridin-3-yl}methanol]",570,1850
"Cn1cccc1CN1CCC(n2nnc3c(N4CCOCC4)nc(-c4cncc(O)c4)nc32)CC1 [Example 19, 5-(3-{1-[(1-methyl-1H-pyrrol-2-yl)methyl]piperidin-4-yl}-7-morpholin-4-yl-3H-[1,2,3]triazolo[4,5-d]pyrimidin-5-yl)pyridin-3-ol]",83,277
"O=C(c1ccc(Cn2nnc3c(N4CCOCC4)nc(-c4cccc(O)c4)nc32)cc1)N1CCCCC1 [Example 227, 3-{7-morpholin-4-yl-3-[4-(piperidin-1-ylcarbonyl)benzyl]-3H-[1,2,3]triazolo[4,5-d]pyrimidin-5-yl}phenol]",1130,950
"CC(C)n1nnc2c(N3CCOCC3)nc(-c3ccc(N)cc3)nc21 [Example 81, 4-(3-isopropyl-7-morpholin-4-yl-3H-[1,2,3]triazolo[4,5-d]pyrimidin-5-yl)-phenylamine]",1030,4630
"CCCCN1CCC(n2nnc3c(N4CCOCC4)nc(-c4cncc(O)c4)nc32)CC1 [Example 27, 5-[3-(1-butylpiperidin-4-yl)-7-morpholin-4-yl-3H-[1,2,3]triazolo[4,5-d]pyrimidin-5-yl]pyridin-3-ol]",385,2530
"Oc1cncc(-c2nc(N3CCOCC3)c3nnn(C4CCN(Cc5ccc(F)cc5F)CC4)c3n2)c1 [Example 23, 5-{3-[1-(2,4-difluorobenzyl)piperidin-4-yl]-7-morpholin-4-yl-3H-[1,2,3]triazolo[4,5-d]pyrimidin-5-yl}pyridin-3-ol]",68,44
"CN(CCNC(=O)Nc1ccc(-c2nc(N3CCOCC3)c3nnn(CC(F)(F)F)c3n2)cc1)C(=O)OC(C)(C)C [Example 139, tert-butyl methyl{2-[({4-[7-morpholin-4-yl-3-(2,2,2-trifluoroethyl)-3H-[1,2,3]triazolo[4,5-d]pyrimidin-5-yl]phenyl}carbamoyl)amino]ethyl}carbamate]",318,1500
"Oc1cccc(-c2nc(N3CCOCC3)c3nnn(CCN4CCN(C5CCCCC5)CC4)c3n2)c1 [Example 106, 3-{3-[2-(4-cyclohexylpiperazin-1-yl)ethyl]-7-morpholin-4-yl-3H-[1,2,3]triazolo[4,5-d]pyrimidin-5-yl}phenol]",556,2140
"OCc1cccc(-c2nc(N3CCOCC3)c3nnn(C4CCN(Cc5ccccc5)CC4)c3n2)c1 [Example 177, {3-[3-(1-benzylpiperidin-4-yl)-7-morpholin-4-yl-3H-[1,2,3]triazolo[4,5-d]pyrimidin-5-yl]phenyl}methanol]",83.5,435
"c1cc(-c2nc(N3CCOCC3)c3nnn(CCCN4CCCC4)c3n2)c2cn[nH]c2c1 [Example 11, 5-(1H-indazol-4-yl)-7-morpholin-4-yl-3-(3-pyrrolidin-1-ylpropyl)-3H-[1,2,3]triazolo[4,5-d]pyrimidine]",83,132
"O=C(c1ccccc1)N1CCN(CCn2nnc3c(N4CCOCC4)nc(-c4cccc(O)c4)nc32)CC1 [Example 99, 3-{3-[2-(4-benzoylpiperazin-1-yl)ethyl]-7-morpholin-4-yl-3H-[1,2,3]triazolo[4,5-d]pyrimidin-5-yl}phenol]",924,5750
"CCn1nnc2c(N3CCOCC3)nc(-c3ccc(NC(=O)Nn4cnnc4)cc3)nc21 [Example 36, 1-[4-(3-ethyl-7-morpholin-4-yl-3H-[1,2,3]triazolo[4,5-d]pyrimidin-5-yl)phenyl]-3-(4H-1,2,4-triazol-4-yl)urea]",179,895

# More lines, now with the values ahead:
IC50 (PI3 Kinase α) [nM],IC50 (PI3 Kinase γ) [nM],Molecule
4,8.5,"O=C(Nc1ccccc1)Nc1ccc(-c2nc(N3CCOCC3)c3nnn(-c4cccc(C(=O)O)c4)c3n2)cc1 [Example 123, 3-(7-morpholin-4-yl-5-{4-[(phenylcarbamoyl)amino]phenyl}-3H-[1,2,3]triazolo[4,5-d]pyrimidin-3-yl)benzoic acid]"
31,111,"Oc1cncc(-c2nc(N3CCOCC3)c3nnn(C4CCN(Cc5ccco5)CC4)c3n2)c1 [Example 13, 5-{3-[1-(2-furylmethyl)piperidin-4-yl]-7-morpholin-4-yl-3H-[1,2,3]triazolo[4,5-d]pyrimidin-5-yl}pyridin-3-ol]"
54,595,"Oc1cccc(-c2nc(N3CCOCC3)c3nnn(CCN4CCNCC4)c3n2)c1 [Example 98, 3-[7-morpholin-4-yl-3-(2-piperazin-1-ylethyl)-3H-[1,2,3]triazolo[4,5-d]pyrimidin-5-yl]phenol]"
61,161,"Oc1cncc(-c2nc(N3CCOCC3)c3nnn(C4CCN(Cc5cncc(Br)c5)CC4)c3n2)c1 [Example 16, 5-(3-{1-[(5-bromopyridin-3-yl)methyl]piperidin-4-yl}-7-morpholin-4-yl-3H-[1,2,3]triazolo[4,5-d]pyrimidin-5-yl)pyridin-3-ol]"
10.5,49,"Cn1nnc2c(N3CCOCC3)nc(-c3ccc(NC(=O)Nc4cccnc4)cc3)nc21 [Example 199, 1-[4-(3-methyl-7-morpholin-4-yl-3H-[1,2,3]triazolo[4,5-d]pyrimidin-5-yl)phenyl]-3-pyridin-3-ylurea]"
10.5,48.5,"CC(C)n1nnc2c(N3CCOCC3)nc(-c3ccc(NC(=O)Nc4cccnc4)cc3)nc21 [Example 83, 1-[4-(3-isopropyl-7-morpholin-4-yl-3H-[1,2,3]triazolo[4,5-d]pyrimidin-5-yl)-phenyl]-3-pyridin-3-yl-urea]"
68,408,"O=C(Nc1ccccc1)Nc1ccc(-c2nc(N3CCOCC3)c3nnn(CC4CN(Cc5ccc(-c6ccncc6)cc5)C4)c3n2)cc1 [Example 193, 1-[4-(7-Morpholin-4-yl-3-{[1-(4-pyridin-4-ylbenzyl)azetidin-3-yl]methyl}-3H-[1,2,3]triazolo[4,5-d]pyrimidin-5-yl)phenyl]-3-phenylurea]"
27.5,102,"O=C(O)c1cccc(-n2nnc3c(N4CCOCC4)nc(-c4cccc(O)c4)nc32)c1 [Example 118, 3-[5-(3-hydroxyphenyl)-7-morpholin-4-yl-3H-[1,2,3]triazolo[4,5-d]pyrimidin-3-yl]benzoic acid]"
57,242,"Oc1cccc(-c2nc(N3CCOCC3)c3nnn(CCCN4CCCC4)c3n2)c1 [Example 9, 3-[7-morpholin-4-yl-3-(3-pyrrolidin-1-ylpropyl)-3H-[1,2,3]triazolo[4,5-d]pyrimidin-5-yl]phenol]"
< 2.7,9,"CCn1nnc2c(N3CCOCC3)nc(-c3ccc(NC(=O)Nc4ccc(C(=O)NCCCN(C)C)cc4)cc3)nc21 [Example 47, N-[3-(dimethylamino)propyl]-4-({[4-(3-ethyl-7-morpholin-4-yl-3H-[1,2,3]triazolo[4,5-d]pyrimidin-5-yl)phenyl]carbamoyl}amino)benzamide]"
5.3,20,"1-{4-[3-(2-hydroxyethyl)-7-morpholin-4-yl-3H-[1,2,3]triazolo[4,5-d]pyrimidin-5-yl]phenyl}-3-pyridin-4-ylurea [Example 183]"
67.5,152,"COC(Cn1nnc2c(N3CCOCC3)nc(-c3ccc(NC(=O)Nc4ccc(F)cc4)cc3)nc21)OC [Example 180, 1-{4-[3-(2,2-dimethoxyethyl)-7-morpholin-4-yl-3H-[1,2,3]triazolo[4,5-d]pyrimidin-5-yl]phenyl}-3-(4-fluorophenyl)urea]"
